Key:
U-937 [1] = experiment: Concentration required for the compound to induce U 937 cells along the monocyte-macrophage pathway; type: functional, cell-based; conditions: Homo sapiens
Rattus norvegicus = experiment: Compound was tested for in vivo antitumor effect on rats with mammary tumors induced by nitrosomethylurea at a dose of 2.5 ug/kg/day; type: functional
U-937 [2] = experiment: Compound was tested in vitro to inhibit proliferation of U 937 human histiolytic lymphoma cells; type: functional, cell-based

SMILES	Concentration (U-937 [1])	inhibition in vivo at 0.0025 mg/kg/day (Rattus norvegicus)	IC50 (U-937 [2])
C=C1/C(=C\C=C2/CCC[C@]3(C)[C@@H]([C@H](C)CCCC(C)(C)O)CC[C@@H]23)C[C@@H](O)C[C@@H]1O	2 nM		
C=C1/C(=C\C=C2/CCC[C@]3(C)[C@@H]([C@H](C)/C=C/C=C/C(O)(CC)CC)CC[C@@H]23)C[C@@H](O)C[C@@H]1O [SEOCALCITOL]	0.03 nM	80%	0.25 nM

From ChEMBL document CHEMBL1126546, “Vitamin D analogues: new regulators of cancer cell growth and differentiation” (Bioorg Med Chem Lett, 1993)
